Source: patent publication US7094781B2, “Sulfamides and their use as endothelin receptor antagonists” (Actelion Pharmaceuticals Ltd., priority 2000, dated 2006)
Where two headings read alike, the source gives them in different places.

What was measured:
[1] = biological target: T1, human recombinant ETB receptor (Homo sapiens, UniProt P24530); experiment: Inhibition of [125I]ET-1 binding to membranes from CHO cells carrying human ETB receptors
T1 construct: expressed in transfected cells; host or cells: CHO cells (microsomal membranes)
T1 sequence (P24530 27-442): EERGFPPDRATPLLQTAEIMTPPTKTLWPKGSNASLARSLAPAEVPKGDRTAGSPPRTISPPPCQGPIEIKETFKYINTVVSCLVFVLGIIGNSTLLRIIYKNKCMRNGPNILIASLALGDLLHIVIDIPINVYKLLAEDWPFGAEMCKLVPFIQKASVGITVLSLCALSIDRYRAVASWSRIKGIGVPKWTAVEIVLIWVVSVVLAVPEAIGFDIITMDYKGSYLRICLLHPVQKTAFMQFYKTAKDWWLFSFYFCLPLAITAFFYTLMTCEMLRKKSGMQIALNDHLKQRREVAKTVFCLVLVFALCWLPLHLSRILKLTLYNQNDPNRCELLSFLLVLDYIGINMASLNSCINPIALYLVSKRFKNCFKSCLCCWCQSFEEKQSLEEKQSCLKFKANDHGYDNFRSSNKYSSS

[2] = biological target: T2, ETB receptors (rat tracheal rings) (Rattus norvegicus, UniProt P21451); experiment: Inhibition of sarafotoxin S6c-induced contraction on isolated rat tracheal rings
T2 construct: The thoracic aorta or trachea were excised, dissected and cut in 3–5 mm rings; from tissue; host or cells: tracheal rings of adult Wistar rats, epithelium removed
T2 sequence (P21451 27-442): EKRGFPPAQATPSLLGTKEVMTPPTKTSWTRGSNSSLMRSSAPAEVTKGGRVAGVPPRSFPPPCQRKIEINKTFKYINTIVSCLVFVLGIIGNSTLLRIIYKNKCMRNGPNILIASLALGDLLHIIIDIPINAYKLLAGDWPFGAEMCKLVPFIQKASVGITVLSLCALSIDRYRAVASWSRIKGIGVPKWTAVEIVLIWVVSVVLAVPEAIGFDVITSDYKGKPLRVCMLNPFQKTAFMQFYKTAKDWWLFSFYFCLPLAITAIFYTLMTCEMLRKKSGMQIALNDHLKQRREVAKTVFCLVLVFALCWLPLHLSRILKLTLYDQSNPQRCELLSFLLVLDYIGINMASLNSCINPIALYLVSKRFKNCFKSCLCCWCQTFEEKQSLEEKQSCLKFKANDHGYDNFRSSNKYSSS
Protocol: (§1) 2) Inhibition of Endothelin-induced Contractions on Isolated Rat Aortic Rings (ETA Receptors) and Rat Tracheal Rings (ETB Receptors):
(§2) The functional inhibitory potency of the endothelin antagonists was assessed by their inhibition of the contraction induced by endothelin-1 on rat aortic rings (ETA receptors) and of the contraction induced by sarafotoxin S6c on rat tracheal rings (ETB receptors). Adult Wistar rats were anesthetized and exsanguinated. The thoracic aorta or trachea were excised, dissected and cut in 3–5 mm rings. The endothelium/epithelium was removed by gentle rubbing of the intimal surface. […] The rings were connected to force transducers and isometric tension was recorded (EMKA Technologies SA, Paris, France). The rings were stretched to a resting tension of 3 g (aorta) or 2 g (trachea). […] The functional inhibitory potency of the test compound was assessed by calculating the concentration ratio, i.e. the shift to the right of the EC50 induced by different concentrations of test compound. EC50 is the concentration of endothelin needed to get a half-maximal contraction, pA2 is the negative logarithm of the antagonist concentration which induces a two-fold shift in the EC50 value.

[3] = biological target: T3, human recombinant ETA receptor (Homo sapiens, UniProt P25101); experiment: Inhibition of [125I]ET-1 binding to membranes from CHO cells carrying human ETA receptors
T3 construct: expressed in transfected cells; host or cells: CHO cells (microsomal membranes)
T3 sequence (P25101 21-427): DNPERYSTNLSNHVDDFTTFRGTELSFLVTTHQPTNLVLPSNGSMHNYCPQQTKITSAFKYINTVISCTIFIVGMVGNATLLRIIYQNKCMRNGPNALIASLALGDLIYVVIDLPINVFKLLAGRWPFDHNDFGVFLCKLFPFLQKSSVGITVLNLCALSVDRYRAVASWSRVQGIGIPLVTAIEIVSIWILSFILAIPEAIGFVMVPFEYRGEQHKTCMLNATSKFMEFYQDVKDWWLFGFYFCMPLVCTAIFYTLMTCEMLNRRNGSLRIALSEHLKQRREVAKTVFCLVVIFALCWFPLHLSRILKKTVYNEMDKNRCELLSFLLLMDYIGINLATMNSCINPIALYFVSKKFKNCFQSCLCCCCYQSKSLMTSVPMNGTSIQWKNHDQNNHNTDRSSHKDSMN

[4] = biological target: T4, ETA receptors (rat aortic rings) (Rattus norvegicus, UniProt P26684); experiment: Inhibition of endothelin-1-induced contraction on isolated rat aortic rings
T4 construct: The thoracic aorta or trachea were excised, dissected and cut in 3–5 mm rings; from tissue; host or cells: thoracic aorta rings of adult Wistar rats, endothelium removed
T4 sequence (P26684 21-426): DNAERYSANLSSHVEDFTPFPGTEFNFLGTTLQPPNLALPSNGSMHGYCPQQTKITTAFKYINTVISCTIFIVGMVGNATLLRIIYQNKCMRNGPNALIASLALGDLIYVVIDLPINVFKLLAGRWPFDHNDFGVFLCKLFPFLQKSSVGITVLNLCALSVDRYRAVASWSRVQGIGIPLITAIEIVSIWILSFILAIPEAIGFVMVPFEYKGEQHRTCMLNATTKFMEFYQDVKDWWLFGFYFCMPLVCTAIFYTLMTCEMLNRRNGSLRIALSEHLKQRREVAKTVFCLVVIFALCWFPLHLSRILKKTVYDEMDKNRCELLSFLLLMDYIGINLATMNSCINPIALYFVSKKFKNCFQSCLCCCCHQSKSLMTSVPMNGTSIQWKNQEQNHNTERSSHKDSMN
Protocol: as §1, §2

| SMILES | IC50 [1] [nM] | Kb [2] [nM] | IC50 [3] [nM] | Kb ([4]; read-out: pA2 value ETA (converted)) [nM] | Kb [4] [nM] |
| --- | --- | --- | --- | --- | --- |
| O=S(=O)(NCc1ccccn1)Nc1ncnc(OCCOc2ncc(Br)cn2)c1-c1ccc(Cl)cc1 [Example 18] | 3330 | > 10000 | 8.5 | 7.08 | – |
| CSc1cnc(OCCOc2ncnc(NS(=O)(=O)NCc3ccccc3)c2-c2ccc(Br)cc2)nc1 [Example 102] | 65 | 174 | 0.46 | – | 3.98 |
